Common to all, as to test: Post-emergence efficacy, Method A
Type in all cases: in vivo

The test system of one assay is Lolium perenne (LOLPE). To be noted: Lolium perenne, post-emergence, 312 h, evaluated after 13 days. As to the method:
(§1) Seeds of a variety of test species were sown in standard soil in pots. After cultivation for 14 days (post-emergence) under controlled conditions in a glasshouse (at 24/16° C., day/night; 14 hours light; 65% humidity), the plants were sprayed with an aqueous spray solution derived from the dissolution of the technical active ingredient formula (I) in a small amount of acetone and a special solvent and emulsifier mixture referred to as IF50 (11.12% Emulsogen EL360 TM+44.44% N-methylpyrrolidone+44.44% Dowanol DPM glycol ether), to create a 50 g/I solution which was then diluted to required concentration using 0.25% or 1% Empicol ESC70 (Sodium lauryl ether sulphate)+1% ammonium sulphate as diluent. The test plants were then grown in a glasshouse under controlled conditions (at 24/16° C., day/night; 14 hours light; 65% humidity) and watered twice daily. After 13 days the test was evaluated (100=total damage to plant; 0=no damage to plant).
(§2) Ipomoea hederacea (IPOHE), Euphorbia heterophylla (EPHHL), Chenopodium album (CHEAL), Amaranthus palmeri (AMAPA), Lolium perenne (LOLPE), Digitaria sanguinalis (DIGSA), Eleusine indica (ELEIN), Echinochloa crus-galli (ECHCG), Setaria faberi (SETFA)

Assay [1] concerns Amaranthus palmeri (AMAPA). As to conditions: Amaranthus palmeri, post-emergence, 312 h; Application Rate 500 g/Ha; evaluated after 13 days; Method A; read-out: Control of weed species after post-emergence application, AMAPA (100=total damage to plant; 0=no damage to plant). Here is the method:
as §1, §2

For another assay, the system named is Setaria faberi (SETFA). To be noted: Setaria faberi, post-emergence, 312 h; Application Rate 500 g/Ha; evaluated after 13 days; Method A; read-out: Control of weed species after post-emergence application, SETFA (100=total damage to plant; 0=no damage to plant). As to the method:
as §1, §2

Assay [2] has as its system Digitaria sanguinalis (DIGSA). To be noted: Digitaria sanguinalis, post-emergence, 312 h; Application Rate 500 g/Ha; evaluated after 13 days; Method A; read-out: Control of weed species after post-emergence application, DIGSA (100=total damage to plant; 0=no damage to plant). Here is the method: as §1, §2
In assay [3] the test system is Ipomoea hederacea (IPOHE). As to conditions: Ipomoea hederacea, post-emergence, 312 h, Application Rate 500 g/Ha; evaluated after 13 days; Method A; read-out: Control of weed species after post-emergence application, IPOHE (100=total damage to plant; 0=no damage to plant). As to the method:
as §1, §2

Assay [4] has as its system Echinochloa crus-galli (ECHCG). As to conditions: Echinochloa crus-galli, post-emergence, 312 h; Application Rate 500 g/Ha; evaluated after 13 days; Method A; read-out: Control of weed species after post-emergence application, ECHCG (100=total damage to plant; 0=no damage to plant). As to the method: as §1, §2
A further assay concerns Eleusine indica (ELEIN). To be noted: Eleusine indica, post-emergence, 312 h; Application Rate 500 g/Ha; evaluated after 13 days; Method A; read-out: Control of weed species after post-emergence application, ELEIN (100=total damage to plant; 0=no damage to plant). Here is the method:
as §1, §2

The test system of assay [5] is Chenopodium album (CHEAL). To be noted: Chenopodium album, post-emergence, 312 h; Application Rate 500 g/Ha; evaluated after 13 days; Method A; read-out: Control of weed species after post-emergence application, CHEAL (100=total damage to plant; 0=no damage to plant). As to the method: as §1, §2
Setting [6] is: Application Rate 500 g/Ha, Method A, read-out: Control of weed species after post-emergence application, LOLPE (100=total damage to plant; 0=no damage to plant).

SMILES strings stand for the structures. Read-outs that look alike come from different tables or passages of the source.

Here are results for 15 compounds from patent US20220125051A1, “PRE-HARVEST DESICCATION METHOD” (SYNGENTA CROP PROTECTION AG, priority 2019, published 2022).

On to `O=C(O)CC[n+]1ccc(-c2ncccn2)cn1` [Compound A125, 3-(4-pyrimidin-2-ylpyridazin-1-ium-1-yl)propanoic acid 2,2,2-trifluoroacetate], for which, in the assay on Lolium perenne (LOLPE) (Application rate 500 g/Ha, 100=total damage to plant, 0=no damage to plant, read-out: Control of weed species after post-emergence application, LOLPE), the pest or weed control at 500 g/ha amounted to 90%.
For `N#Cc1ccc(-c2cc[n+](CCS(=O)(=O)[O-])nc2)nc1` [Compound A169], the pest or weed control at 500 g/ha in assay [1] was 100%; in the assay on Setaria faberi (SETFA) it was 50%; in assay [2], 50%; with Lolium perenne (LOLPE) (setting [6]), 50%; in assay [3] it was 40%; in assay [4], 40%. Moreover, the pest or weed control at 500 g/ha in the assay with Eleusine indica (ELEIN) came to 90%; in assay [5] it was 70%.
As for `CC(C[n+]1ccc(-c2ccncn2)cn1)C(=O)O` (centres unmarked) [Compound A171], the pest or weed control at 500 g/ha in assay [1] turned out to be 100%; in the assay on Setaria faberi (SETFA) it was 60%; in assay [2] it was 60%; in the assay on Lolium perenne (LOLPE) (setting [6]), 70%; in assay [3] it was 80%; in assay [4], 60%. Moreover, the pest or weed control at 500 g/ha (with Eleusine indica (ELEIN); in assay [5]) was 80% in each case.
In the case of `N#Cc1ccc(-c2cc[n+](CCC(=O)O)nc2)nc1` [Compound A176], the pest or weed control at 500 g/ha turned out to be 40% in assay [1]; 40% in the assay with Setaria faberi (SETFA); 30% in assay [2]; 40% in the assay on Lolium perenne (LOLPE) (setting [6]); 40% in assay [3]; 30% in assay [4]. Further, the pest or weed control at 500 g/ha worked out at 70% in the assay with Eleusine indica (ELEIN) and 30% in assay [5].
Consider `CC(CS(=O)(=O)[O-])[n+]1ccc(-c2ncccn2)cn1` (centres unmarked) [Compound A181, 2-(4-pyrimidin-2-ylpyridazin-1-ium-1-yl)propane-1-sulfonate], for which the pest or weed control at 500 g/ha in assay [1] was found to be 90%; in the assay with Setaria faberi (SETFA), 60%; in assay [2], 80%; in the assay on Lolium perenne (LOLPE) (setting [6]) it was 90%; in assay [3], 80%; in assay [4], 100%. For the same compound, the pest or weed control at 500 g/ha with Eleusine indica (ELEIN) came out at 100%; in assay [5] it was 90%.
As to `NC(=O)c1ccc(-c2cc[n+](CCCS(=O)(=O)[O-])nc2)nc1` [Compound A183], the pest or weed control at 500 g/ha worked out at 10% in assay [1]; 10% with Setaria faberi (SETFA); 30% in assay [2]; 10% in the assay with Lolium perenne (LOLPE) (setting [6]); 20% in assay [3]; 20% in assay [4]. In addition, the pest or weed control at 500 g/ha in the assay on Eleusine indica (ELEIN) was 10%; in assay [5], 0%.
In the case of `CC(CC[n+]1ccc(-c2ncccn2)cn1)S(=O)(=O)[O-]` (centres unmarked) [Compound A185], the pest or weed control at 500 g/ha in assay [1] was determined as 100%; with Setaria faberi (SETFA), 50%; in assay [2], 30%; in the assay with Lolium perenne (LOLPE) (setting [6]), 30%; in assay [3], 30%; in assay [4], 40%. The figures for the pest or weed control at 500 g/ha (with Eleusine indica (ELEIN); in assay [5]) were 30% and 80%, respectively.
Regarding `OCC[n+]1ccc(-c2ncccn2)cn1` [Compound A195, 2-(4-pyrimidin-2-ylpyridazin-1-ium-1-yl)ethanol 2,2,2-trifluoroacetate], the pest or weed control at 500 g/ha in assay [2] was 20%; in the assay on Lolium perenne (LOLPE) (setting [6]), 0%; in assay [3] it was 20%; in assay [4] it was 10%; in the assay with Eleusine indica (ELEIN), 10%; in assay [5], 60%.
For `Cc1ccc(-c2cc[n+](CCC(=O)O)nc2)nc1` [Compound A199], the pest or weed control at 500 g/ha worked out at 30% with Setaria faberi (SETFA); 50% in assay [2]; 0% in the assay with Lolium perenne (LOLPE) (setting [6]); 10% in assay [3]; 20% in assay [4]; 10% with Eleusine indica (ELEIN). In addition, the pest or weed control at 500 g/ha in assay [5] was determined as 40%.
In the case of `O=P([O-])(O)C[n+]1ccc(-c2ncccn2)cn1` [Compound A205, hydroxy-[(4-pyrimidin-2-ylpyridazin-1-ium-1-yl)methyl]phosphinate], the pest or weed control at 500 g/ha in assay [1] is 80%; in the assay on Setaria faberi (SETFA), 80%; in assay [2], 80%; with Lolium perenne (LOLPE) (setting [6]), 40%; in assay [3], 80%; in assay [4], 60%. The pest or weed control at 500 g/ha (with Eleusine indica (ELEIN); in assay [5]) was 60% each time.
Consider `O=S(=O)([O-])N1CCCC1C[n+]1ccc(-c2ncccn2)cn1` (centres unmarked) [Compound A222], for which the pest or weed control at 500 g/ha in assay [1] was determined as 80%; with Setaria faberi (SETFA) it was 80%; in assay [2], 90%; with Lolium perenne (LOLPE) (setting [6]) it was 20%; in assay [3], 70%; in assay [4] it was 70%. The pest or weed control at 500 g/ha (in the assay on Eleusine indica (ELEIN); in assay [5]) was 60% in each case.
In the case of `O=S(=O)([O-])CC(O)C[n+]1ccc(-c2ccncn2)cn1` (centres unmarked) [Compound A224], the pest or weed control at 500 g/ha in assay [1] came to 100%; with Setaria faberi (SETFA), 40%; in assay [2], 80%; with Lolium perenne (LOLPE) (setting [6]) it was 40%; in assay [3], 80%; in assay [4], 40%. Also, the pest or weed control at 500 g/ha with Eleusine indica (ELEIN) is 80%; in assay [5], 90%.
In the case of `O=C(O)c1ccc(C[n+]2ccc(-c3ncccn3)cn2)cc1` [Compound A228], the pest or weed control at 500 g/ha in assay [1] was 80%; in the assay with Setaria faberi (SETFA), 10%; in assay [2] it was 20%; in the assay on Lolium perenne (LOLPE) (setting [6]) it was 0%; in assay [3], 60%; in assay [4] it was 10%. In addition, the pest or weed control at 500 g/ha in the assay with Eleusine indica (ELEIN) was 10%; in assay [5], 60%.
Take `COC(=O)c1ccc(C[n+]2ccc(-c3ncccn3)cn2)cc1` [Compound A229]: the pest or weed control at 500 g/ha in assay [1] came to 10%; in the assay on Setaria faberi (SETFA), 10%; in assay [2], 20%; in the assay on Lolium perenne (LOLPE) (setting [6]), 0%; in assay [3] it was 10%; in assay [4] it was 0%. Also, the pest or weed control at 500 g/ha (in the assay with Eleusine indica (ELEIN); in assay [5]) was 0% in each case.
Turning to `CCOP(=O)(C[n+]1ccc(-c2ncccn2)cn1)OCC` [Compound A230, 1-(diethoxyphosphorylmethyl)-4-pyrimidin-2-yl-pyridazin-1-ium 2,2,2-trifluoroacetate], the pest or weed control at 500 g/ha in assay [1] was 50%; in the assay on Setaria faberi (SETFA), 50%; in assay [2], 70%; in the assay with Lolium perenne (LOLPE) (setting [6]), 0%; in assay [3], 20%; in assay [4], 60%. Besides, the figures for the pest or weed control at 500 g/ha (in the assay with Eleusine indica (ELEIN); in assay [5]) were 10% and 60%, respectively.
